Data on one compound can be found in patent US12252472B1, “Barbituric acid derivatives, their preparation and use thereof as leukocyte transmigration inhibitors and for treating inflammatory diseases, autoimmune diseases and cancer” (BAR-ILAN UNIVERSITY, priority 2017, dated 2025).

Experiment [1] has as its system primary human monocytes on TNF-alpha-activated HUVECs. Description: Shear flow assay: monocyte adhesion and transmigration on TNFα-activated HUVECs. It is filed as cell-based. The source says:
A flow assay that allows detailed analysis of individual leukocyte interactions with endothelial cells (ECs), described in Bradfield et al. (Bradfield et al., 2016, PloS One, July 21; 11(7); Bradfield et al., 2007, Blood. October 1; 110(7):2545-55) was used for evaluation of the biological effects of the compounds according to the invention. This method allows the determination of the possible effects of the compounds on three major phases in leukocyte migration: the capture of free non-bound leukocytes by endothelium, migration of leukocytes on the endothelium surface, and transendothelial migration (transmigration) of human leukocytes through the HUVECs layer. Post transmigrational events can also be monitored by tracking individual leukocytes. […] Human umbilical vein endothelial cells (HUVECs) were cultivated in the plastic channel of the flow chamber, and human leukocyte were flowed over them using a calibrated pump, allowing monocyte capture, adhesion and migration to be monitored.
Human umbilical vein endothelial cells (HUVEC) were isolated by collagenase treatment of umbilical veins as previously described (Wall, R. T., et al., Factors influencing endothelial cell proliferation in vitro. J Cell Physiol, 1978. 96(2): p. 203-13) and maintained in M199 containing 20% fetal calf serum (FCS), 15 μg/mL endothelial cell growth supplement (Upstate Biotechnology, Lake Placid, NY), 100 μg/mL heparin, 50 μM hydrocortisone, and 10 μg/mL vitamin C. Cells were cultured up to a maximum of passage 5.
Peripheral blood mononuclear cells (PBMCs) were first isolated from blood of healthy donors followed by monocyte purification using a monocyte isolation kit (Miltenyi Biotec, Bergisch Gladbach, Germany). Purity and activity of monocytes were controlled by flow cytometry by labelling with anti-CD14 and anti-CD62L. Only populations of 90% or more double positive cells were used.
Flow assays were conducted as described in a previous study (Bradfield, P. F., et al., JAM-C regulates unidirectional monocyte transendothelial migration in inflammation. Blood, 2007. 110(7): p. 2545-55). HUVECs were cultured at 1×10^5 cells/slide on Ibidi 6-chamber slides (80606; Ibidi) before treatment with TNFα (500 U/mL) for 6-10 hours. An individual chamber outlet was then attached to a calibrated pump (74 900; Cole Partner, Vernon Hills, IL) and flow was generated by perfusing wash buffer (M199 with 0.15% BSA) or a monocyte suspension (2.5×10^6 cells/mL) over the HUVEC monolayer. The flow rate was representative of shear rates in small venules (0.05 Pa). Observations made using phase-contrast microscopy (Model: Axiovert 100; Objective: 20×/0.3 NA air; Carl Zeiss) were recorded using a high-resolution camera (D70; Nikon, Zurich, Switzerland). Individual images were recorded every 30 seconds with Nikon capture software (v4.2) and compiled into movie sequences using Adobe Photoshop (CS6) and Image J (v1.5d), allowing analysis of individual monocytes over large areas. The tested compounds, e.g. compounds of the general Formula (I), were maintained at the specified concentration in all wash buffers throughout the course of the experiment. The compounds were preincubated separately on both HUVECs and monocytes 15 minutes prior to flow co-culture. HUVEC monolayers were washed for 10 minutes prior to a compound wash-in step to allow for this preincubation period. The monocyte suspension was then perfused over HUVECs for 4 minutes followed by 20 to 60 minutes with wash buffer. Time-lapse recording was started upon monocyte first-contact with the monolayer. Monocyte adhesion data are presented as the total number of monocytes per unit field. Transmigration events are presented as a percentage of total monocytes captured from flow per unit field. All experiments were carried out using quadruplicate fields and are presented as a mean value (±SEM).
A timeline is shown to represent the positioning and timing of an individual monocyte during movie analysis (marked ‘Timeline’). […]

In experiment [2] the test system is C57BL/6J mice. Put plainly: MOG35-55/CFA-induced experimental autoimmune encephalomyelitis (EAE). It is filed as in vivo, mouse. The settings on record: 15 mg/kg SC q3w. The method, then: Female 7-8 weeks old C57BL/6J mice were immunized with an emulsion of MOG35-55 in CFA according to standard protocol, followed by administration of pertussis toxin (PTX) in PBS. After the onset of EAE (9 days), mice were assigned by rolling enrollment to the groups one at a time as they show the first signs of EAE (paralysis score 0.5-1). Treatment group was administered with Formula 2 at 15 mg/kg dose at q3w regiment by SC injections, mock treated (vehicle) control group was administered with similar volume as a treated group. Body weight of animals was determined prior to the experiment and the administered volume of Formula 2 formulation was adjusted according to the body weight. During the experiment, mice body weight and paralysis clinical score was monitored daily.
Mice from all groups were euthanized with isoflurane 24 hours post last dose administration. Two-way ANOVA statistical analysis was performed.

The test system of experiment [3] is DBA/1 mice. Put plainly: Collagen induced arthritis (CIA) model. In kind it is in vivo, mouse. The procedure:
Male DBA/lOlaHsd mice (7-8 weeks of age) were injected with CII (Type II collagen)+CFA (complete Frennd's adjuvant) emulsion on Day 0 (S.C.) to persuade collagen induced arthritis (CIA). On Day 21 the animals receive the same amount of the emulsion as a booster. Twice between Days 0 and 18 after immunization (before enrollment begins), both hind paws of all mice were measured using calipers to establish baseline values for paw thickness. On Day 22 mice were enrolled into groups when they first shown paw swelling and treatment was initiated. A working formulation of compound of Formula 2 was administered by IP injections at 15 mg/kg dose at q3w regiment. Mock treated (vehicle) control group was administered IP with the same volume and regiment as a treatment group. Administration was performed at a constant volume dosage based on individual body weight. The severity of CIA was monitored daily. The CIA scoring is on the scale of 0 to 16 (0 to 4 for each paw, adding the scores for all 4 paws). On day 43 (24 hours post last dose administration) all paws thickness was measured and mice were euthanized. All limbs from each mouse were placed in individual labeled tubes, fixed in 4% buffered formalin, paraffin embedded and sectioned. Histological score was assessed using hematoxylin and eosin (H&E) stained sections. Joints were scored for inflammation, cartilage damage, pannus formation, and bone resorption on a scale of 0 to 3 for each readout. Two-way ANOVA statistical analysis was performed.

In general, IC50 refers to the midpoint of a concentration-inhibition curve. As for `COC(=O)c1ccc(COc2c(C=C3C(=O)NC(=O)NC3=O)cccc2C(C)(C)C)cc1` [Formula 2, methyl 4-((2-(tert-butyl)-6-((2,4,6-trioxotetrahydropyrimidin-5(2H)-ylidene)methyl)phenoxy)methyl) benzoate], the monocyte transmigration entry in experiment [1] (30 μM) is “completely blocked”; in experiment [1] (dose response, 3 μM) it was “partial blocking”; in experiment [1] (dose response, 30-100 μM), “full blocking”. The Monocyte adhesion entry in experiment [1] (30 μM, flow 0.05 Pa for 30 minutes) is “unaffected”. Moreover, the “Level of Transmigration Blockage (%)” value in experiment [1] (30 μM, monocytes on TNF-activated HUVECs under flow 0.05 Pa) is 100%. Besides, the IC50 in experiment [1] (Homo sapiens, HUVEC, flow 0.05 Pa, n=3) came out at 2.4 µM. The Emax in experiment [1] (Homo sapiens, HUVEC, monocyte transmigration inhibition, read-out: maximal efficacy) turned out to be 48%. Also, in experiment [1] (dose response, 100 μM to 3 nM), the “concentration below which not active on monocyte transmigration” value is listed as “below 300 nM”. Moreover, the “time of the maximal effect” value in experiment [1] (monocyte transmigration, read at 10, 15, 20 and 25 minutes) is 20 min. In addition, in experiment [2] (by day 20), the body weight result was “body weight recovery to that recorded on the onset of the disease”. In addition, the “paralysis score, decrease” value in experiment [2] (by day 20) is reported as “from 2 to 1.5”. Further, in experiment [2] (end of the experiment, average), the “body weight difference between treated and non-treated group” value is “approximately 4 g”. Besides, the paralysis score entry in experiment [2] (starting from day 10) is “stable”. Further, the “Histological score of joints” value in experiment [3] (15 mg/kg IP q3w) is on record as “significantly reduced”. Further, the “fore and hind limb thickness” value in experiment [3] (15 mg/kg IP q3w, day 43) is “significantly reduced”. For the same compound, in experiment [3] (FIG. 23 legend: 15 mg/kg SC), the CIA score result was “therapeutic effect”. For the same compound, the “histological evaluation of talus and calcaneum joint sections” value in experiment [3] (representative sections, treated mouse (FIG. 25B)) was “No cartilage and bone and erosion and profuse infiltration of inflammatory cells are present”.
